The text below walks through data of patent US7517902B2, “Substituted indazoles, compositions containing the same, and the preparation and use thereof” (Aventis Pharma S.A., priority 2004, dated 2009).

One data set concerns the target T1, human KDR enzyme (Homo sapiens, UniProt P35968).
T1 construct: The cytoplasmic domain of the human KDR enzyme was cloned in the form of a GST fusion; GST; made in house; host or cells: SF21 insect cells (baculovirus, pFastBac)
The experiment in a line: KDR substrate phosphorylation assay (scintillation, 96-well plate). Format: biochemical. The protocol: The inhibitory effect of the compounds is determined in an assay of substrate phosphorylation by the KDR enzyme in vitro using a scintillation technique (96-well plate, NEN).
The cytoplasmic domain of the human KDR enzyme was cloned in the form of a GST fusion into the baculovirus expression vector pFastBac. The protein was expressed in SF21 cells and purified to approximately 60% homogeneity.
The KDR kinase activity is measured in 20 mM MOPS, 10 mM MgCl2, 10 mM MnCl2, 1 mM DTT, 2.5 mM EGTA, 10 mM β-glycerophosphate, pH=7.2, in the presence of 10 mM MgCl2, 100 μM Na3VO4, 1 mM NaF. 10 μl of the compound are added to 70 μl of kinase buffer, containing 100 ng of KDR enzyme at 4° C. The reaction is triggered by adding 20 μl of solution containing 2 μg of substrate (SH2-SH3 fragment of PLCγ expressed in the form of a GST fusion protein), 2 μCi γ^33P[ATP] and 2 μM cold ATP. After 1 hour of incubation at 37° C., the reaction is stopped by adding 1 volume (100 μl) of 200 mM EDTA. The incubation buffer is withdrawn and the wells are washed three times with 300 μl of PBS. The radioactivity is measured in each well using a Top Count NXT radioactivity counter (Packard).
The background noise is determined by measuring the radioactivity in four different wells containing the radioactive ATP and the substrate alone.
A control for total activity is measured in four different wells containing all of the reagents (γ^33P-[ATP], KDR and PLCγ substrate), but in the absence of compound.
The inhibition of KDR activity with the compound of the invention is expressed in percentage inhibition of the control activity determined in the absence of compound.
The compound SU5614 (Calbiochem) (1 μM) is included in each plate as an inhibition control.

In the next data set the target is T2, human Tie2 (Homo sapiens, UniProt Q02763).
T2 construct: amino acids of the intracellular domain 776-1124; made in house
The experiment in a line: Tie2 assay of PLC phosphorylation (FlashPlate). Format: biochemical. The note with it: read-out: IC 50 TIE2. The protocol: The coding sequence of human Tie2, corresponding to the amino acids of the intracellular domain 776-1124, was generated by PCR, using the cDNA isolated from human placenta as a model. This sequence was introduced into a baculovirus expression vector pFastBacGT in the form of a GST fusion protein.
The inhibitory effect of the molecules is determined in an assay of PLC phosphorylation by Tie2 in the presence of GST-Tie2 purified to approximately 80% homogeneity. The substrate is composed of the SH2-SH3 fragments of PLC expressed in the form of a GST fusion protein.
The kinase activity of Tie2 is measured in a 20 mM MOPS buffer, pH 7.2, containing 10 mM MgCl2, 10 mM MnCl2, 1 mM DTT, 10 mM of glycerol-phosphate. In a 96-well FlashPlate plate, kept on ice, a reaction mixture is deposited which is composed of 70 μl of kinase buffer containing 100 ng of GST-Tie2 enzyme per well. Subsequently 10 μl of the test molecule diluted to a concentration of 10% maximum in DMvSO are added. For a given concentration, each measurement is carried out in quadruplicate. The reaction is initiated by adding 20 μl of solution containing 2 μg of GST-PLC, 2 μM of cold ATP and 1 μCi of ^33P[ATP]. After 1 hour of incubation at 37° C., the reaction is terminated by adding 1 volume (100 μl) of 200 mM EDTA. Following removal of the incubation buffer, the wells are washed three times with 300 μl of PBS. The radioactivity is measured on a Wallac MicroBeta 1450.
The inhibition of Tie2 activity is calculated and expressed as a percentage inhibition relative to the control activity determined in the absence of compound.

For another data set, the target named is T3, Aurora2 (Homo sapiens, UniProt O14965).
T3 construct: Aurora 2: whole recombinant protein comprising an N-terminal histidine tail; His tag (histidine tail) (N); made in house; host or cells: E. coli
T3 sequence (O14965 1-403): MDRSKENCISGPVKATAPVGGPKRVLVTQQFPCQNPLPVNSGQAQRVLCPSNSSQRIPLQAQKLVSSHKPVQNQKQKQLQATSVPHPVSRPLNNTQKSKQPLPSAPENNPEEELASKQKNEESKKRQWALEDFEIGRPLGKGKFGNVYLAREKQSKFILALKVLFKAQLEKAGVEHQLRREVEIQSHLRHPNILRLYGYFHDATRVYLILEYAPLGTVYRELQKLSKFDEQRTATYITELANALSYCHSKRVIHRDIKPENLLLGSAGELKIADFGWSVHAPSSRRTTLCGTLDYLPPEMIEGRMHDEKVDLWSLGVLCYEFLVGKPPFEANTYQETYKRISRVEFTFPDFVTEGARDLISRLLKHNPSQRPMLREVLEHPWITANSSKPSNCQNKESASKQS
The experiment in a line: Aurora2 enzyme assay, NuMA substrate phosphorylation (Flashplate). Type of data set: biochemical. The note with it: read-out: IC 50 Aurora2. The protocol:
The inhibitory effect of compounds with respect to the kinases Aurora1 and Aurora2 is determined by an enzyme assay employing radioactivity detection.
The kinase activity of Aurora 1 and Aurora 2 is evaluated by the phosphorylation of the substrate Numa-histidine in the presence of radiolabeled ATP ([^33P]ATP), using 96-well Flashplate plates in which nickel chelate is fixed to the surface of the microplate. The amount of ^33P phosphate incorporated in the NuMA substrate is proportional to the activity of the enzyme Aurora1 or Aurora2.
The proteins are produced in the protein production laboratory of the SanofiAventis group.
Aurora 2: whole recombinant protein comprising an N-terminal histidine tail, expressed in E. coli and purified to more than 82%.
NuMA (nuclear protein that associates with the mitotic apparatus) fragment of 424 amino acids, expressed in E. coli, whose N-terminal end has been labeled with histidine and used as a substrate for the two Aurora enzymes.
The microplates used are 96-well Flash-Plate plates with nickel chelate (Perkin Elmer, model SMP107).
The products for evaluation are incubated in a reaction volume of 100 μL per well in the presence of 10 nM of Aurora 1 or Aurora 2, 500 nM of NuMA substrate in a buffer composed of 50 mM of Tris/HCl (pH 7.5), 50 mM NaCl, 5 mM MgCl2 (Aurora-B) or 10 mM MgCl2 (Aurora-A) and 1 mM of DTT, at 37° C.
In each well, 80 μL of the enzyme/substrate incubation buffer are distributed, followed by 10 μL of the product to be evaluated, in variable concentrations. The reaction is initiated by adding 1 μM of final ATP containing 0.2 μCi of [^33P]ATP (10 μL). After 30 minutes of incubation, the reaction is terminated by simply removing the reaction buffer and each well is washed twice with 300 μl of the Tris/HCl buffer. The radioactivity is then measured in each well by means of a scintillation apparatus, Packard, Top count model.
The control enzyme activity of Aurora is expressed by the number of counts per minute obtained within 30 minutes, after deduction of the background noise (reaction mixture not containing the enzyme). The evaluation of the various test products is expressed in percentage inhibition of the Aurora activity relative to the control.

T2 sequence (Q02763 776-1124): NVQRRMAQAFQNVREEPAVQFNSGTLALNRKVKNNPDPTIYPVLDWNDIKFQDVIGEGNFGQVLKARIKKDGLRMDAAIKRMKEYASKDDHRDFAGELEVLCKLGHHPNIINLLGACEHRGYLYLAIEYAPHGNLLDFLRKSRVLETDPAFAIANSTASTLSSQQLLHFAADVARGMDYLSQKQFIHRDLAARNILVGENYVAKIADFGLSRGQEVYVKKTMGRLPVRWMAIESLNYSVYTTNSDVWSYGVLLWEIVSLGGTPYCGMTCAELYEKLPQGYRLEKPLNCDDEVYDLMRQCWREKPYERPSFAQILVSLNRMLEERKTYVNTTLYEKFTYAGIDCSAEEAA
T1 sequence (P35968 786-1356 limits assumed): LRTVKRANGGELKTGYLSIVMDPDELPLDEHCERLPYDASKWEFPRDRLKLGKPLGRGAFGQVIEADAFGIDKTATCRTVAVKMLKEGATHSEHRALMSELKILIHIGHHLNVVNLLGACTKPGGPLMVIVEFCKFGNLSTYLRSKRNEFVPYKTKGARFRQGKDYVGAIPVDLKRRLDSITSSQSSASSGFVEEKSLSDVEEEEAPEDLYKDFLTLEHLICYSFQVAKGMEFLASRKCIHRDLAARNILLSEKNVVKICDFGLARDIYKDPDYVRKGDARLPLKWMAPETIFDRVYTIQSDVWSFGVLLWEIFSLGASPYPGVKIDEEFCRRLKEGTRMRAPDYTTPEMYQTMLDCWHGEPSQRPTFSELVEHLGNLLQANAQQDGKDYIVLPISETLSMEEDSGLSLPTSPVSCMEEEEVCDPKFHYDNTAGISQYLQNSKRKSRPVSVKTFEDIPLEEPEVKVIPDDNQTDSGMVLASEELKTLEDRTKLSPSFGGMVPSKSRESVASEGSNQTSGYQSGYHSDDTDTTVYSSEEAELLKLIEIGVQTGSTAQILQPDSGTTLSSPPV

Compound `O=C(Nc1ccc(-c2ccc3c(NC(=O)c4ccco4)n[nH]c3c2F)cc1)Nc1cc(C(F)(F)F)ccc1F` [Example 17, 1-(4-{7-Fluoro-3-[(furan-2-yl)carbonylamino]-1H-indazol-6-yl}phenyl)-3-(2-fluoro-5-trifluoromethylphenyl)urea] returned a melting point of 152 to 153 °C. Moreover, the IC50 against human KDR enzyme was 29 nM. Further, the IC50 on human Tie2 came to 8 nM. Moreover, the IC50 on Aurora2 was determined as 60 nM.
`O=C(Nc1ccc(-c2ccc3c(NC(=O)c4ccccc4)n[nH]c3c2F)cc1)Nc1cc(C(F)(F)F)ccc1F` [Example 18, 1-(4-{7-Fluoro-3-[phenylcarbonylamino]-1H-indazol-6-yl}phenyl)-3-(2-fluoro-5-trifluoromethylphenyl)urea] displayed a melting point of 206 to 207 °C. The compound further gave an IC50 against human KDR enzyme of 77 nM. For the same compound, the IC50 at human Tie2 was found to be 26 nM. Moreover, the IC50 on Aurora2 was 346 nM.
